Converted amounts (≈) assume the structure as drawn. Like-named read-outs stand apart in the source and are kept apart here.
What was measured:
HIV-1 [1] = assay: PBMC assay, virus production by reverse transcriptase activity; type: cell-based; details: ROJO in PBMC
Excerpt: Method 2: PBMC Assay Method (Peripheral Blood Mononuclear cell)—Description
This assay addresses the issue of providing a rationale for further evaluation of the compound by providing evidence of in vitro anti-HIV activity against a low passage clinical strain of HIV-1. These fresh human peripheral blood mononuclear cell assays use fresh human cells obtained from the American Red Cross from uninfected, normal human donors. Mononuclear cells from these blood samples are isolated by centrifugation and infected with low passage clinical strains of HIV-1 which have been obtained by culture of blood cells from HIV-infected patients with uninfected PBMCs. Since the PBMCs are not killed by HIV infection, endpoint quantification is performed by measurement of virus production in each well by reverse transcriptase assay or p24 ELISA. These assays provide evidence that the test compounds will have efficacy against viruses, which will likely be encountered in patients without genetic changes, introduced by passage in cell culture.
Thus, PBMCs assay measures the amount of virus released from the infected cells into the tissue culture supernatant. The activity of the test compound is measured by its ability to reduce the level of virus production relative to the virus controls (cells+virus with no added compound). In PBMC culture we use reverse transcriptase activity in the supernatant to quantify the amount of virus production from the infected cells. Endpoint quantification is performed at 6 days post-infection.
Fresh human peripheral blood lymphocytes (PBL) are isolated from voluntary Red Cross donors, seronegative for HIV and HBV. Leukophoresed blood is diluted 1:1 with Dulbecco's phosphate buffered saline (PBS), layered over 14 mL of Ficoll-Hypaque density gradient in a 50 mL centrifuge tube. Tubes are then centrifuged for 30 minutes at 600×g. Banded PBLs are gently aspirated from the resulting interface and subsequently washed 2× with PBS by low speed centrifugation. […] After incubation, PBLs are centrifuged and reset in RPMI 1640 with 15% FBS, 2 mM L-glutamine, 100 U/mL. penicillin, 100 ug/mL streptomycin, 10 ug/mL gentamycin, and 20 U/mL recombinant human IL-2. PBLs are maintained in this medium at a concentration of 1-2×10E6/mL with bi-weekly medium changes, until use in assay protocol. For the PBL assay, PHA-P stimulated cells from at least two normal donors are pooled, set in fresh medium at 2×10E6/mL and plated in the interior wells of a 96 well round bottom microplate at 50 μL/well. Test drug dilutions are prepared at a 2× concentration in microtiter tubes and 100 μL of each concentration is placed in appropriate wells in a standard format. 50 μL of a predetermined dilution of virus stock is placed in each test well. Wells with cells and virus alone are used for virus control. Separate plates are identically set without virus for drug cytotoxicity studies using an XTT assay system.
In the standard PBL assay (MOI: 0.2), the assay was ended on day 7 following collection of cell free supernatant samples for reverse transcriptase activity assay. In the low MOI PBL assay (MOI: 0.02), supernatant samples were collected on day 6, day 11, and day 14 post-infection and analyzed for RT activity.

PBMCs = assay: Toxicity to PBMC, XTT; type: cell-based, human
CEM-SS cells = type: cell-based; details: CEM-SS
HIV-1 [2] = details: CEM-SS, HIV1 RF
Method: This is a cytoprotection assay that uses the T-lymphoblastoid tumor cell line CEM-SS and laboratory adapted strains of HIV-1. Upon infection with HIV, the CEM-SS cells form syncytia and eventually die, producing large amounts of progeny virus over the course of 4-6 days at the standard multiplicity of infection (0.01). The antiviral assay measures the ability of a given compound to inhibit the HIV-induced cell killing. […] The activity of the compound is evaluated by measuring cell viability at 6 days post-infection and comparing the viability to that obtained in cell control (cells only), virus control (cells and virus only) and toxicity control (cells and compound only) wells.
Efficacy of the compound in cell culture is measured by increased cell viability in CEM-SS assays or reduction in virus production in PBMC assays. The data obtained yields a dose response curve which can be evaluated to determine doses which yield 25%, 50% and 95% protection from HIV-induced cell killing or virus production. […] These concentrations are reported as the TC25, TC50 and TC95 values. The ratio of toxicity to efficacy constitutes the therapeutic index TC50/IC50.
CEM-SS cells assay measures the ability of the compound to inhibit HIV induced cell killing. The cells are stained at 6 days post-infection with the tetrazolium dye XTT which is converted to a colored formazan product by the mitochondria of viable cells. Protection from cell killing afforded by the test compound is measured by comparison to both cell controls and virus controls. Cell killing in this system is directly related to the amount of virus produced by the infected cells and XTT-formazan production is proportional to the number of viable cells in each well. Toxicity of the compound to the target cells is measured in parallel.
CEM-SS cells (or other established human cell line used in these experiments) were passaged in T-150 flasks for use in the assay. On the day preceding the assay, the cells were split 1:2 to assure they would be in an exponential growth phase at time of infection. On the day of assay the cells were washed twice with tissue culture medium and resuspended in fresh tissue culture medium. Total cell and viability counting was performed using hemacytometer and trypan blue dye exclusion. Cell viability was greater than 95% for the cells to be utilized in the assay. The cells were pelleted and resuspended at 2.5×10^4 cells per ml in tissue culture medium. Cells were added to the drug-containing plates in a volume of 50 μl.
A pretitered aliquot of virus was removed from the freezer (−80° C.) and allowed to thaw slowly to room temperature in a biological safety cabinet. The virus was resuspended and diluted into tissue culture medium such that the amount of virus added to each well in a volume of 50 μl will be the amount determined to give complete cell killing at 6 days post-infection. In general the virus pools produced with the IIIB isolate of HIV required the addition of 5 μl of virus per well.
Each plate contained cell control wells (cells only), virus control wells (cells plus virus), drug toxicity control wells (cells plus drug only), drug colorimetric control wells (drug only) as well as experimental wells (drug plus cells plus virus).
After 6 days of incubation at 37° C. in a 5% CO2 incubator the test plates were analyzed by staining with the tetrazolium dye XTT. XTT-tetrazolium is metabolized by the mitochondrial enzymes of metabolically active cells to a soluble formazan product, allowing the rapid quantitative analysis of the inhibition of HIV-induced cell killing by anti-HIV test substances. On day 6 post-infection plates were removed from the incubator and observed.

[3] = tested on: Escherichia coli ATCC 11229; assay: Microdilution broth MIC assay; type: cell-based; details: ATCC11229, Ec, Mueller Hinton broth, about 17 hr
Method: (§1) Test organisms. The test organisms are listed in Table 5 along with their source. Prior to assay, overnight bacterial slant cultures were used to inoculate Mueller Hinton broth followed by incubation for 5-7 hr. Each culture was then standardized turbidimetrically to a viable count of about 10^6 colony forming units/ml and used to inoculate the mirotiter assay plates. The viable count after addition to the plates was about 5×10^5 CFU/ml.
(§2) Experimental design. The MIC of the test compounds for the bacterial strains was determined with a microdilution broth assay in 96 well microtiter plates. The test compounds were dissolved in DMSO and then diluted 10-fold in assay medium (Mueller Hinton broth) to obtain final concentrations of 0.128, 1.28, 12.8, and 128 μg/ml. A viability control containing DMSO, diluted in the same manner as the test compounds, was used to confirm that the DMSO was not inhibitory by itself. Trimethoprim (TMP) was used as a positive drug control. The assay plates were incubated at 37° C. for about 17 hr and each assay well observed visually for growth. The MIC was determined at the lowest concentration of drug which inhibited growth. [drawing 32]

[4] = tested on: Staphylococcus epidermidis ATCC 35984; assay: Microdilution broth MIC assay; type: cell-based; details: ATCC35984, Se, Mueller Hinton broth, about 17 hr
Method: as §1, §2

[5] = tested on: Proteus mirabilis ATCC 9921; assay: Microdilution broth MIC assay; type: cell-based; details: ATCC9921, Pm, Mueller Hinton broth, about 17 hr
Method: as §1, §2

[6] = tested on: Streptococcus pneumoniae ATCC 6303; assay: Microdilution broth MIC assay; type: cell-based; details: ATCC6303, Sp, Mueller Hinton broth, about 17 hr
Method: as §1, §2

[7] = tested on: Pseudomonas aeruginosa ATCC 15442; assay: Microdilution broth MIC assay; type: cell-based; details: ATCC15442, Pa, Mueller Hinton broth, about 17 hr
Method: as §1, §2

[8] = tested on: Klebsiella pneumoniae ATCC 4352; assay: Microdilution broth MIC assay; type: cell-based; details: ATCC4352, Kp, Mueller Hinton broth, about 17 hr
Method: as §1, §2

[9] = tested on: Staphylococcus aureus ATCC 6538; assay: Microdilution broth MIC assay; type: cell-based; details: ATCC6538, Sa, Mueller Hinton broth, about 17 hr
Method: as §1, §2

Cc1cn([C@H]2C[C@H](N=[N+]=[N-])[C@@H](CO)O2)c(=O)[nH]c1=O [AZT, reference compound]
RT ACTIVITY % VC (HIV-1 [1]; 0.0013 μM): 104.6%
RT ACTIVITY MEAN (HIV-1 [1]; 0.0013 μM): 7531.7 cpm
RT ACTIVITY % VC (HIV-1 [1]; 0.013 μM): 77.3%
RT ACTIVITY MEAN (HIV-1 [1]; 0.013 μM): 5566.3 cpm
RT ACTIVITY % VC (HIV-1 [1]; 0.04 μM): 81.7%
RT ACTIVITY MEAN (HIV-1 [1]; 0.04 μM): 5880.0 cpm
RT ACTIVITY % VC (HIV-1 [1]; 0.13 μM): 32.3%
RT ACTIVITY MEAN (HIV-1 [1]; 0.13 μM): 2397.0 cpm
RT ACTIVITY % VC (HIV-1 [1]; 0.4 μM): 3.8%
RT ACTIVITY MEAN (HIV-1 [1]; 0.4 μM): 274.0 cpm
RT ACTIVITY % VC (HIV-1 [1]; 1.3 μM): 8.8%
RT ACTIVITY MEAN (HIV-1 [1]; 1.3 μM): 88.0 cpm
RT ACTIVITY % VC (HIV-1 [1]; 4 μM): 0.7%
RT ACTIVITY MEAN (HIV-1 [1]; 4 μM): 48.3 cpm
IC50 (HIV-1 [1]; RT activity, read-out: IC50): 100 nM
CC50 (PBMCs): > 4000 nM

Nc1ccn([C@H]2CC[C@@H](CO)O2)c(=O)n1 [DDC, di-deoxycytosine, reference compound]
% CELL VIABILITY (CEM-SS cells; 0.00003 μM): 100%
CYTOTOXICITY TEST VALUES MEAN O.D. (CEM-SS cells; 0.00003 μM): 1.496 O.D.
% CELL VIABILITY (CEM-SS cells; 0.0001 μM): 93%
CYTOTOXICITY TEST VALUES MEAN O.D. (CEM-SS cells; 0.0001 μM): 1.346 O.D.
% CELL VIABILITY (CEM-SS cells; 0.00032 μM): 99%
CYTOTOXICITY TEST VALUES MEAN O.D. (CEM-SS cells; 0.00032 μM): 1.428 O.D.
% CELL VIABILITY (CEM-SS cells; 0.001 μM): 100%
CYTOTOXICITY TEST VALUES MEAN O.D. (CEM-SS cells; 0.001 μM): 1.476 O.D.
% CELL VIABILITY (CEM-SS cells; 0.0032 μM): 100%
CYTOTOXICITY TEST VALUES MEAN O.D. (CEM-SS cells; 0.0032 μM): 1.450 O.D.
% CELL VIABILITY (CEM-SS cells; 0.01 μM): 100%
CYTOTOXICITY TEST VALUES MEAN O.D. (CEM-SS cells; 0.01 μM): 1.550 O.D.
% CELL VIABILITY (CEM-SS cells; 0.032 μM): 100%
CYTOTOXICITY TEST VALUES MEAN O.D. (CEM-SS cells; 0.032 μM): 1.658 O.D.
% CELL VIABILITY (CEM-SS cells; 0.1 μM): 96%
CYTOTOXICITY TEST VALUES MEAN O.D. (CEM-SS cells; 0.1 μM): 1.391 O.D.
% CELL VIABILITY (CEM-SS cells; 0.32 μM): 97%
CYTOTOXICITY TEST VALUES MEAN O.D. (CEM-SS cells; 0.32 μM): 1.400 O.D.
% CELL VIABILITY (CEM-SS cells; 1 μM): 100%
CYTOTOXICITY TEST VALUES MEAN O.D. (CEM-SS cells; 1 μM): 1.469 O.D.
% CELL VIABILITY (CEM-SS cells; 3.2 μM): 100%
CYTOTOXICITY TEST VALUES MEAN O.D. (CEM-SS cells; 3.2 μM): 1.826 O.D.
% CELL VIABILITY (CEM-SS cells; 10 μM): 100%
CYTOTOXICITY TEST VALUES MEAN O.D. (CEM-SS cells; 10 μM): 2.064 O.D.
TC 25% (CEM-SS cells; XTT): >10.00 CM
TC 50% (CEM-SS cells; XTT): >10.00 CM
TC 95% (CEM-SS cells; XTT): >10.00 CM
% RED. IN VIRAL CPE (HIV-1 [2]; 0.00003 μM): 1%
ANTIVIRAL TEST VALUES MEAN O.D. (HIV-1 [2]; 0.00003 μM): 0.014 O.D.
% RED. IN VIRAL CPE (HIV-1 [2]; 0.0001 μM): 5%
ANTIVIRAL TEST VALUES MEAN O.D. (HIV-1 [2]; 0.0001 μM): 0.062 O.D.
% RED. IN VIRAL CPE (HIV-1 [2]; 0.00032 μM): 6%
ANTIVIRAL TEST VALUES MEAN O.D. (HIV-1 [2]; 0.00032 μM): 0.080 O.D.
% RED. IN VIRAL CPE (HIV-1 [2]; 0.001 μM): 4%
ANTIVIRAL TEST VALUES MEAN O.D. (HIV-1 [2]; 0.001 μM): 0.057 O.D.
% RED. IN VIRAL CPE (HIV-1 [2]; 0.0032 μM): 8%
ANTIVIRAL TEST VALUES MEAN O.D. (HIV-1 [2]; 0.0032 μM): 0.109 O.D.
% RED. IN VIRAL CPE (HIV-1 [2]; 0.01 μM): 9%
ANTIVIRAL TEST VALUES MEAN O.D. (HIV-1 [2]; 0.01 μM): 0.119 O.D.
% RED. IN VIRAL CPE (HIV-1 [2]; 0.032 μM): 75%
ANTIVIRAL TEST VALUES MEAN O.D. (HIV-1 [2]; 0.032 μM): 1.019 O.D.
% RED. IN VIRAL CPE (HIV-1 [2]; 0.1 μM): 81%
ANTIVIRAL TEST VALUES MEAN O.D. (HIV-1 [2]; 0.1 μM): 1.099 O.D.
% RED. IN VIRAL CPE (HIV-1 [2]; 0.32 μM): 92%
ANTIVIRAL TEST VALUES MEAN O.D. (HIV-1 [2]; 0.32 μM): 1.246 O.D.
% RED. IN VIRAL CPE (HIV-1 [2]; 1 μM): 86%
ANTIVIRAL TEST VALUES MEAN O.D. (HIV-1 [2]; 1 μM): 1.166 O.D.
% RED. IN VIRAL CPE (HIV-1 [2]; 3.2 μM): 100%
ANTIVIRAL TEST VALUES MEAN O.D. (HIV-1 [2]; 3.2 μM): 1.754 O.D.
% RED. IN VIRAL CPE (HIV-1 [2]; 10 μM): 100%
ANTIVIRAL TEST VALUES MEAN O.D. (HIV-1 [2]; 10 μM): 1.687 O.D.
IC 25% (HIV-1 [2]): 0.01 CM
IC 95% (HIV-1 [2]): 2.11 CM

COc1cc(Cc2cnc(N)nc2N)cc(OC)c1OC [TMP, Trimethoprim, reference compound]
MIC [3]: 0.064 to 0.64 µg/mL (≈ 0.22 to 2.2 µM)
MIC [4]: > 64 µg/mL
MIC [5]: 0.64 to 6.4 µg/mL (≈ 2.2 to 22 µM)
MIC [6]: 0.64 to 6.4 µg/mL (≈ 2.2 to 22 µM)
MIC [7]: > 64 µg/mL
MIC [8]: 0.064 to 0.64 µg/mL (≈ 0.22 to 2.2 µM)
MIC [9]: 0.064 to 0.64 µg/mL (≈ 0.22 to 2.2 µM)
